Non-standard residues stand in square brackets, D forms with d. Residues, ends and D or L forms follow the SMILES beside them. *: point of attachment. DOTA = O=C(O)CN1CCN(CC(=O)O)CCN(CC(=O)*)CCN(CC(=O)O)CC1; EuK = O=C(O)CC[C@H](NC(=O)N[C@@H](CCCCN*)C(=O)O)C(=O)O; 2Nal = N[C@@H](Cc1ccc2ccccc2c1)C(=O)O; Trx = NC[C@H]1CC[C@H](C(=O)O)CC1

Series [1] can be described thus: Partition coefficient (logD), n-octanol/PBS pH 7.4. The series is classed as physicochemical. The settings on record: 68Ga-labeled compounds, mean ± SD; for logD: read-out: Partition Coefficient [logDoctanol/PBS]. On the procedure: To determine the lipophilicity expressed as distribution coefficient (logD), a two-phase system of n-octanol (500 µl) and phosphate buffered saline (PBS) (490 µl) at pH 7.4 was used (n = 4). Compounds were radiolabeled with [^68Ga]Ga^3+ and the mixture diluted to a concentration of 0.25 µM in PBS. 10 µl of the 0.25 µM dilution were added to the n-octanol / PBS mixture. After extensive mixing, the 2-phase system was centrifuged for 10 min at 14,000 rpm and 4 °C. Two samples from each phase (100 µl) were taken and measured in a γ-gamma counter (PerkinElmer, Waltham, USA). […] The data is presented as the mean value with the standard deviation (SD).

A further series deals with T1, PSMA (Homo sapiens, UniProt Q04609).
T1 construct: incubated with [^68Ga]Ga-PSMA-10 (0.8 nM) and LNCaP cells (10^5 cells/well) for 45 min at room temperature; host or cells: LNCaP (human prostate carcinoma lymph node metastasis)
T1 sequence (Q04609 whole entry): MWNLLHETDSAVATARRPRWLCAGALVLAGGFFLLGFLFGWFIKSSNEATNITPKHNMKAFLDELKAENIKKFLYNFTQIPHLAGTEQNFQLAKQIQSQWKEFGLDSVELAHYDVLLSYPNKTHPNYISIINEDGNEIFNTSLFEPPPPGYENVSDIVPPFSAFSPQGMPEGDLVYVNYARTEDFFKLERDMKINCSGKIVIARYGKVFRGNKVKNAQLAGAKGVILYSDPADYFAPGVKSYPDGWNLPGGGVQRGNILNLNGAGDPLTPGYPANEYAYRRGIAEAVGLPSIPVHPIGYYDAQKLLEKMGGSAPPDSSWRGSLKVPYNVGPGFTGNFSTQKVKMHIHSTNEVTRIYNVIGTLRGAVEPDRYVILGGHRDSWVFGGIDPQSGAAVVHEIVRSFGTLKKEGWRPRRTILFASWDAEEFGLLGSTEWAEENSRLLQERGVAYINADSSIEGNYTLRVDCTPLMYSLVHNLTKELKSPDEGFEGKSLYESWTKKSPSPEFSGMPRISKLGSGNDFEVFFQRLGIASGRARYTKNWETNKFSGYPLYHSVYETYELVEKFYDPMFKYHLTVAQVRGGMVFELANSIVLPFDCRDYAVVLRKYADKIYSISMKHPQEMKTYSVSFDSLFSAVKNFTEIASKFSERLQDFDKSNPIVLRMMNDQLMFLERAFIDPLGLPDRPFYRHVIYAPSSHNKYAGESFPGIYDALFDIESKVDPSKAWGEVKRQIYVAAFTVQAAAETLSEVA
Briefly: Competitive cell binding (IC50) against [68Ga]Ga-PSMA-10 on LNCaP cells. The settings on record: unlabeled precursors vs [68Ga]Ga-PSMA-10 (0.8 nM), 45 min, room temperature, ± SD. On the procedure:
(§1) The PSMA-positive human cell line LNCaP (human lymph node carcinoma of the prostate; ATCC CRL-1740) was cultivated adherently at 37 °C and humidified 5% CO2 with RPMI-1640 (Thermo Fisher Scientific, Germany) supplemented with 10% fetal bovine serum (Sigma-Aldrich, Germany), 1% sodium pyruvate (Life Technologies, Germany) and 1% penicillin/[…] (Thermo Fisher Scientific, Germany). A mixture of trypsin/ethylenediaminetetraacetic acid (0.05% / 0.02%; Thermo Fisher Scientific, Germany) was used for cell harvesting (last authentication: April 2024).
To determine the binding affinity of the investigated compounds, competitive cell binding studies were performed with ^68Ga-labeled PSMA-10. Dilution series of twelve concentrations in medium were prepared from the precursor peptides PS1 - PS11 including concentrations of 0, 0.5, 1, 2.5, 5, 10, 25, 50, 100, 500, 1,000, and 5,000 nM. The assay was performed on 96-well filter plates (Merck, Darmstadt, Germany). Medium (100 µl per well) was added before the experiment and incubated for 1 h at room temperature to block non-specific binding. The medium was removed and the diluted compounds were incubated with [^68Ga]Ga-PSMA-10 (0.8 nM) and LNCaP cells (10^5 cells/well) for 45 min at room temperature (total volume 100 µl/well). Cells were washed with PBS buffer (2× 100 µl, 1× 200 µl) over a MultiScreen 96-well vacuum filtration system (Merck Millipore, Billerica, USA). The filters containing the retained cells were punched out and the radioactivity was quantified using a γ-counter. By applying a non-linear regression algorithm (GraphPad Prism 8.0.1., Boston, USA), the specific inhibitory concentration of 50% (IC50) could be determined. The experiment was repeated at least three times per compound and the data presented as IC50 ± standard deviation.

Series [2] relates to PSMA-positive LNCaP cells. Briefly: Surface binding and internalization of 68Ga-labeled compounds. The settings on record: for Internalization Block / Surface Binding Block / Internalization / Surface Binding: 30 nM, 45 min, 37 °C; for Internalization Block / Surface Binding Block: blocked with 2-PMPA 500 µM; for Internalization / Surface Binding: unblocked; for Specific Internalization / Specific Surface Binding: difference of unblocked and blocked values. The series is classed as cell-based, human. On the procedure: as §1
Internalization assays were performed on poly-L-lysine coated 24-well cell culture plates. The day before the experiment, LNCaP cells (10^5 cells/well) were harvested and seeded to the wells. The cells were incubated with the ^68Ga-labeled compounds (250 µl, 30 nM, diluted in RPMI medium) for 45 min at 37 °C. […] The medium was then removed and the cells washed with ice-cold PBS buffer (3 × 1 ml). To remove surface bound compounds, ice-cold glycine buffer (2 × 0.5 ml, 50 mM, pH 2.8) was added to the wells and collected after 5 min in a combined fraction. After washing once with PBS (1 ml), NaOH (0.5 ml, 0.3 M) was added to the cells for lysation. Collected surface-bound, internalized fractions and standards from the stock solutions (25 µl) were measured in a γ-counter. Data was normalized and presented as percentage of the initially added radioactivity bound to 10^5 cells [%IA/10^5 cells].

Series [3] relates to LNCaP xenograft-bearing BALB/c nu/nu mice. Nature of the series: Static small-animal PET imaging 1 h and 2 h p.i. The settings on record: 68Ga-labeled, 0.5 nmol i.v., n = 1, SD from VOIs.
Series [4] in a line: Static small-animal PET imaging 1 h and 2 h p.i. The note with it: male, BALB/c nu/nu, mouse, iv, 500 pmol, total radioactivity.
A short description of the next series: in vivo. The settings on record: male, BALB/c nu/nu, mouse, iv, 500 pmol, total radioactivity.

`O=C(O)CC[C@H](NC(=O)N[C@@H](CCCCNC(=O)[C@H](Cc1ccc2ccccc2c1)NC(=O)[C@H]1CC[C@H](CNC(=O)CN2CCN(CC(=O)O)CCN(CC(=O)O)CCN(CC(=O)O)CC2)CC1)C(=O)O)C(=O)O` [PSMA-617, EuK-NaI-ChX-DOTA]: in series [1], the “Partition Coefficient [logDoctanol/PBS]” value was -2.7 ± 0.2. This molecule displayed an IC50 on PSMA of 21.8 ± 3.13 nM. In addition, in series [2], the “Internalization Block” value is given as 0.210 ± 0.036 %Binding / %Internalization, the “Surface Binding Block” value is 0.062 ± 0.013 %Binding / %Internalization, the Internalization is 0.50 ± 0.05 %Binding / %Internalization and the “Surface Binding” value was 0.79 ± 0.13 %Binding / %Internalization. For the same molecule, in series [2], the “Specific Internalization” value was 0.28 ± 0.27 %Binding / %Internalization and the “Specific Surface Binding” value is 0.72 ± 0.38 %Binding / %Internalization. In series [3] (static PET 1 h p.i.), the SUV kidneys is 1.25 ± 0.14 g/mL, the SUV muscle worked out at 0.073 ± 0.004 g/mL and the SUV tumor worked out at 0.63 ± 0.02 g/mL. In series [3] (static PET 2 h p.i.), this molecule returned an SUV kidneys of 0.28 ± 0.06 g/mL, an SUV muscle of 0.02 ± 0.01 g/mL and an SUV tumor of 0.52 ± 0.16 g/mL.
For the molecule `O=C(O)CC[C@H](NC(=O)N[C@@H](CCCCNC(=O)[C@H](Cc1c[nH]cn1)NC(=O)[C@H](CCC(=O)O)NC(=O)[C@H](Cc1c[nH]cn1)NC(=O)[C@H](CCC(=O)O)NC(=O)[C@H](Cc1c[nH]cn1)NC(=O)[C@H](CCC(=O)O)NC(=O)[C@H](Cc1ccc2ccccc2c1)NC(=O)[C@H]1CC[C@H](CNC(=O)CN2CCN(CC(=O)O)CCN(CC(=O)O)CCN(CC(=O)O)CC2)CC1)C(=O)O)C(=O)O` [[^68Ga]Ga-PS1, metal not drawn] ({DOTA-Trx}-[2Nal]EHEHEH-EuK), in series [4] (tumor (LNCaP xenograft), SUV tumor, 68Ga-labeled, 0.5 nmol i.v., static PET 1 h p.i., n = 1, SD from VOIs), the SUV at 1 h is 0.43 ± 0.06 SUV. Also, the SUV at 2 h in series [4] (tumor (LNCaP xenograft), SUV tumor, 68Ga-labeled, 0.5 nmol i.v., static PET 2 h p.i., n = 1, SD from VOIs) is 0.3 ± 0.11 SUV.
As for `O=C(O)CC[C@H](NC(=O)N[C@@H](CCCCNC(=O)[C@H](Cc1ccc2ccccc2c1)NC(=O)[C@H]1CC[C@H](CNC(=O)[C@H](Cc2c[nH]cn2)NC(=O)[C@H](CCC(=O)O)NC(=O)[C@H](Cc2c[nH]cn2)NC(=O)[C@H](CCC(=O)O)NC(=O)[C@H](Cc2c[nH]cn2)NC(=O)[C@H](CCC(=O)O)NC(=O)[C@H](Cc2c[nH]cn2)NC(=O)[C@H](CCC(=O)O)NC(=O)CN2CCN(CC(=O)O)CCN(CC(=O)O)CCN(CC(=O)O)CC2)CC1)C(=O)O)C(=O)O` [PS5, EuK-NaI-ChX-(HE)4-DOTA] ({DOTA}-EHEHEHEH[Trx][2Nal]-EuK), the logD in series [1] was -3.74 ± 0.05. In addition, the IC50 on PSMA was 46.7 ± 37.3 nM. Also, in series [2], the “Internalization Block” value is reported as 0.155 ± 0.022 %Binding / %Internalization, the “Surface Binding Block” value is reported as 0.082 ± 0.029 %Binding / %Internalization, the Internalization is recorded as 0.67 ± 0.06 %Binding / %Internalization and the “Surface Binding” value was 1.41 ± 0.10 %Binding / %Internalization. Besides, in series [2], the “Specific Internalization” value is given as 0.51 ± 0.25 %Binding / %Internalization and the “Specific Surface Binding” value is listed as 1.33 ± 0.42 %Binding / %Internalization. In addition, in the series “in vivo” (SUV kidneys), the SUV at 1 h was 3.13 ± 0.16 SUV and the SUV at 2 h came out at 2.37 ± 0.27 SUV. In addition, in “in vivo” (SUV muscle), the SUV at 1 h was 0.12 ± 0.02 SUV and the SUV at 2 h came to 0.09 ± 0.02 SUV. In addition, in “in vivo” (SUV tumor), the SUV at 1 h is 0.86 ± 0.06 SUV and the SUV at 2 h came out at 0.94 ± 0.07 SUV.
For the molecule `O=C(O)CC[C@H](NC(=O)N[C@@H](CCCCNC(=O)[C@H](Cc1ccc2ccccc2c1)NC(=O)[C@H]1CC[C@H](CNC(=O)[C@H](Cc2c[nH]cn2)NC(=O)[C@H](CCC(=O)O)NC(=O)[C@H](Cc2c[nH]cn2)NC(=O)[C@H](CCC(=O)O)NC(=O)[C@H](Cc2c[nH]cn2)NC(=O)[C@H](CCC(=O)O)NC(=O)CN2CCN(CC(=O)O)CCN(CC(=O)O)CCN(CC(=O)O)CC2)CC1)C(=O)O)C(=O)O` [PS3, EuK-NaI-ChX-(HE)3-DOTA] ({DOTA}-EHEHEH[Trx][2Nal]-EuK), the logD in series [1] is -3.6 ± 0.3. The IC50 on PSMA is 37 ± 11.4 nM. In addition, in series [2], the “Internalization Block” value is 0.112 ± 0.022 %Binding / %Internalization, the “Surface Binding Block” value was 0.069 ± 0.129 %Binding / %Internalization, the Internalization was 0.67 ± 0.14 %Binding / %Internalization and the “Surface Binding” value is given as 1.32 ± 0.11 %Binding / %Internalization. In series [2], the “Specific Internalization” value is given as 0.56 ± 0.42 %Binding / %Internalization and the “Specific Surface Binding” value is on record as 1.26 ± 1.97 %Binding / %Internalization. Moreover, in the series “in vivo” (SUV kidneys), the SUV at 1 h worked out at 3.05 ± 0.01 SUV and the SUV at 2 h is 1.56 ± 0.13 SUV. In the series “in vivo” (SUV muscle), the SUV at 1 h was determined as 0.13 ± 0.03 SUV and the SUV at 2 h amounted to 0.1 ± 0.01 SUV. Besides, in “in vivo” (SUV tumor), the SUV at 1 h came to 0.93 ± 0.08 SUV and the SUV at 2 h amounted to 0.92 ± 0.06 SUV.
Regarding `O=C(O)CC[C@H](NC(=O)N[C@@H](CCCCNC(=O)[C@H](Cc1ccc2ccccc2c1)NC(=O)[C@H](Cc1c[nH]cn1)NC(=O)[C@H](CCC(=O)O)NC(=O)[C@H](Cc1c[nH]cn1)NC(=O)[C@H](CCC(=O)O)NC(=O)[C@H](Cc1c[nH]cn1)NC(=O)[C@H](CCC(=O)O)NC(=O)[C@H]1CC[C@H](CNC(=O)CN2CCN(CC(=O)O)CCN(CC(=O)O)CCN(CC(=O)O)CC2)CC1)C(=O)O)C(=O)O` [[^68Ga]Ga-PS2, metal not drawn] ({DOTA-Trx}-EHEHEH[2Nal]-EuK), in series [4] (tumor / kidney), the tissue to tissue ratio at 1 h came to 0.47 ± 0.14 and the tissue to tissue ratio at 2 h turned out to be 0.73 ± 0.14.
As to `O=C(O)CC[C@H](NC(=O)N[C@@H](CCCCNC(=O)[C@H](Cc1ccc2ccccc2c1)NC(=O)[C@H]1CC[C@H](CNC(=O)[C@H](CCC(=O)O)NC(=O)[C@H](Cc2c[nH]cn2)NC(=O)[C@H](CCC(=O)O)NC(=O)[C@H](Cc2c[nH]cn2)NC(=O)[C@H](CCC(=O)O)NC(=O)[C@H](Cc2c[nH]cn2)NC(=O)CN2CCN(CC(=O)O)CCN(CC(=O)O)CCN(CC(=O)O)CC2)CC1)C(=O)O)C(=O)O` [PS4, EuK-NaI-ChX-(EH)3-DOTA] ({DOTA}-HEHEHE[Trx][2Nal]-EuK), in series [1], the logD was -3.9 ± 0.3. In series [2], the “Internalization Block” value is reported as 0.149 ± 0.047 %Binding / %Internalization, the “Surface Binding Block” value is recorded as 0.080 ± 0.009 %Binding / %Internalization, the Internalization is 0.81 ± 0.29 %Binding / %Internalization and the “Surface Binding” value is listed as 1.43 ± 0.12 %Binding / %Internalization. Also, in series [2], the “Specific Internalization” value is 0.66 ± 0.68 %Binding / %Internalization and the “Specific Surface Binding” value was 1.35 ± 0.21 %Binding / %Internalization. Moreover, in the series “in vivo” (SUV kidneys), the SUV at 1 h worked out at 3.81 ± 0.15 SUV and the SUV at 2 h stood at 2.77 ± 0.2 SUV. Further, in “in vivo” (SUV muscle), the SUV at 1 h was 0.11 ± 0.02 SUV and the SUV at 2 h was determined as 0.1 ± 0.03 SUV. In addition, in “in vivo” (SUV tumor), the SUV at 1 h was 1.15 ± 0.04 SUV and the SUV at 2 h was 1.07 ± 0.09 SUV.

The IC50 is the point on the concentration scale where inhibition reaches its midpoint. The low end stands for greater potency, the high end for weaker potency.
